Data taken from patent publication US20070179113A1, “GM-CSF gene therapy for Crohn's disease using an improved regulated expression system” (Schering Aktiengesellachaft, priority 2005, published 2007).

Tests used:
Mx1 RNA = Mx1 RNA induction in PBMCs after bolus injection of mIFN-β protein; type: in vivo, C57BL/6 mice
Protocol: FIG. 6 illustrates Mx1 RNA induction following i.v. (A) or i.m. injection (B) of mIFN-β protein. C57BL/6 mice were administered 15, 150, or 500 ng of purified recombinant mIFN-β protein (specific activity-2.0×10^8 units/mg) by either i.v. (via tail vein) or i.m. injection (n=3 mice per group). At the specified time points post-injection mice were bled, and RNA was isolated from PBMCs. Mx1 RNA was measured by quantitative RT-PCR. The fold increase in Mx1 RNA is expressed relative to GAPDH values measured in the same samples. The controls include naive mice (N), and mice injected with the vehicle buffer only followed by Mx1 analysis at 2 hours (V2 h) or 4 h (V4 h) post-injection. Each column represents the mean value +/− standard deviation.
A quantitative PCR/RT-PCR assay was developed to quantitate the levels of Mx1 mRNA in murine PBMC's. Specifically, peripheral blood mononuclear cells (PBMCs) were isolated from mice treated with either mIFN-β protein or following gene-based delivery of the mIFN-β gene. Blood samples obtained from treated mice were centrifuged on a ficoll cushion for 25 minutes at 2,000 rpm. Purified PBMCs were pelleted and RNA for the Mx1 assay was purified using the “RNAeasy” mini extraction kit from Qiagen. The RNA was stored in H2O at −80° C. Mx1 RT-PCR was performed using TaqMan® chemistry and analysis was done on the Applied Biosystems (ABI) PRISM® 7700 Sequence Detection instrument. For reverse transcription of the RNA and amplification of cDNA, the “One-step TaqMan® RNA” kit from ABI was used. RNA was reverse transcribed for 30 minutes at 48° C. and the amplification was done in 40 cycles with a denaturation step at 95° C. for 30 seconds, and an annealing/elongation step at 60° C. for 1 minute. The samples were analyzed with an Mx1-specific probe/primer combination. Mx1 expression was normalized to GAPDH expression measured in parallel using a standard assay from ABI.
B. Bolus Injection of mIFN-β Protein Induces Transient Biomarker Response In Vivo: The biomarker response after bolus injection of purified recombinant mIFN-β was measured in these studies. […] The highest Mx1 expression levels were measured 2 hours after injection. […] At the 500 ng dose there was a diminished level of Mx1 RNA induction. This saturating effect has been observed in other studies in which high IFN-β levels lead to an apparent down-regulation of the bioresponse, perhaps due to down regulation of the IFN type I receptor (see e.g., Mager, D E and Jusko, W J (2002) Pharm Res 19:1537-43). Mx1 RNA expression in the i.v. injected mice also peaked at approximately 2 hours post-injection and dropped rapidly thereafter.
This is the first time that the expression of Mx1 RNA has been used as a biomarker to follow the activity of mIFN-β in mice. […] However, the upregulation is short term and rapidly drops from high expression levels to background within 12-24 hours.

[1] = Luciferase reporter gene assay for activity of purified mIFN-β protein; type: cell-based
Protocol: Specifically, the gene encoding mIFN-β was cloned into a pCEP4 expression vector (Invitrogen). The expression plasmid encoding mIFN-β was transiently transfected into 293E cells (Edge Biosystems) using X-tremeGene Ro-1539 Transfection Reagent (Roche). Murine IFN-β protein was purified from the medium by ion-exchange chromatography and by hydrophobic-interaction chromatography. The product was sialyzed and concentrated against dilution buffer (50 mM sodium acetate, pH 5.5, 150 mM sodium chloride, and 5% polypropylene glycol) and sterile filtered. Aliquots of the purified protein were stored at −80° C. The activity of the purified protein was assessed using a luciferase reporter gene assay (Hardy et al. (2001) Blood 97:473-482), using a commercial mIFN-β reference standard from Access Biomedical (San Diego, Calif.). The specific activity of the purified protein was 2×10^8 units/mg.
The positive control used for this study was Prednisolone, 2.5 mg/kg, (Sigma, St. Louis) administered by IP injection twice daily, beginning on day 1, until the end of the study. For mIFN-β protein delivery, the mice were given SC injections of purified recombinant mIFN-β protein every other day, starting on day 1 of the study (100,000 or 300,000 IU per animal per injection in 100 ul vehicle buffer). […]

mIFN-β: purified recombinant murine interferon-beta protein expressed in 293E cells
induction of Mx1 RNA expression relative to vehicle injected mice (Mx1 RNA; 15, 150 or 500 ng, i.v. or i.m.): 25- to 50 fold | time within which Mx1 upregulation drops to background (Mx1 RNA; bolus protein): 12 to 24 h | time beyond which no Mx1 RNA levels above background were detected (Mx1 RNA; i.m.): ≤ 12 h | dose giving the highest Mx1 induction (Mx1 RNA; i.v.): 150 ng | time of peak Mx1 RNA expression post-injection (Mx1 RNA; i.v.): approximately 2 hours | time of highest Mx1 expression levels after injection (Mx1 RNA; i.v. or i.m.): 2 h | specific activity of the purified protein [1]: 2×10^8 units/mg
